# Assays:
# Experiment in all cases: increase in dead-cell fraction, 72 h; higher = more death;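 also: breast cancer cell lines in 384-well plates, stained with Hoechst plus LIVE/DEAD far red dye and imaged, cells above an LDR intensity threshold counted dead, Hoechst-negative corpses included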
# [1] = compound: C1=CC(=CC(=C1)N2C(=O)C=CC3=CN=C4C=CC(=CC4=C32)C5=CN=C(C=C5)N)C(F)(F)F [Torin2]
# [2] = compound: C=CCn1c(=O)c2cnc(Nc3ccc(N4CCN(C)CC4)cc3)nc2n1-c1cccc(C(C)(C)O)n1 [AZD1775]
# [3] = compound: CC1(CCN(CC1)C2=CN=C(C(=N2)N)C3=C(C(=CC=C3)Cl)Cl)N [SHP099]
# [4] = compound: CC1=CN2C(=O)C=C(N=C2C(=C1)C(C)NC3=CC=CC=C3)N4CCOCC4 [TGX221]
# [5] = compound: CCNC(=O)c1noc(-c2cc(C(C)C)c(O)cc2O)c1-c1ccc(CN2CCOCC2)cc1 [Luminespib/NVP-AUY922]
# [6] = compound: CNC(=O)c1cccc(-c2ccc3c(N4CCOC[C@@H]4C)nc(N4CCOC[C@@H]4C)nc3n2)c1 [AZD2014]
# [7] = compound: COc1ccc2c(c1)[C@]1(C[C@H]1c1ccc3c(/C=C/c4ccc(CN5C[C@@H](C)O[C@@H](C)C5)cc4)n[nH]c3c1)C(=O)N2
# [8] = compound: COc1cccc2c1C(=O)c1c(O)c3c(c(O)c1C2=O)C[C@@](O)(C(=O)CO)C[C@@H]3O[C@H]1C[C@H](N)[C@H](O)[C@H](C)O1 [Doxorubicin]
# [9] = compound: Cc1nc(NC(=O)N2CCC[C@H]2C(N)=O)sc1-c1ccnc(C(C)(C)C(F)(F)F)c1 [Alpelisib/BYL719]
# [10] = compound: Cc1nn(C)c(COc2ccc(N3CCN(S(=O)(=O)N(C)C)CC3)cc2)c1-c1cccc2c(CCCOc3cccc4ccccc34)c(C(=O)O)n(CCN3CCOCC3)c12
# [11] = compound: NC1(C(=O)N[C@@H](CCO)c2ccc(Cl)cc2)CCN(c2nc[nH]c3nccc2-3)CC1 [AZD5363]
# [12] = compound: O=C(CCCCCCC(=O)Nc1ccccc1)NO [Vorinostat]
cell line,measurement,setting,value
AU565,increase in dead-cell fraction,[1]; 0.0001 µM,0.0019
same,increase in dead-cell fraction,[1]; 0.0003162 µM,0.0033
same,increase in dead-cell fraction,[1]; 0.001 µM,0.0025
same,increase in dead-cell fraction,[1]; 0.003162 µM,0.0127
same,increase in dead-cell fraction,[1]; 0.01 µM,0.032
same,increase in dead-cell fraction,[1]; 0.03162 µM,0.0466
same,increase in dead-cell fraction,[1]; 0.1 µM,0.0874
same,increase in dead-cell fraction,[1]; 0.3162 µM,0.0982
same,increase in dead-cell fraction,[1]; 1 µM,0.121
same,increase in dead-cell fraction,[2]; 0.001 µM,0.0224
same,increase in dead-cell fraction,[2]; 0.003162 µM,0.0098
same,increase in dead-cell fraction,[2]; 0.01 µM,0.0075
same,increase in dead-cell fraction,[2]; 0.03162 µM,0.029
same,increase in dead-cell fraction,[2]; 0.1 µM,0.0256
same,increase in dead-cell fraction,[2]; 0.3162 µM,0.0481
same,increase in dead-cell fraction,[2]; 1 µM,0.119
same,increase in dead-cell fraction,[2]; 3.162 µM,0.184
same,increase in dead-cell fraction,[2]; 10 µM,0.472
same,increase in dead-cell fraction,[3]; 0.001 µM,-0.0127
same,increase in dead-cell fraction,[3]; 0.003162 µM,-0.0116
same,increase in dead-cell fraction,[3]; 0.01 µM,-0.0073
same,increase in dead-cell fraction,[3]; 0.03162 µM,-0.0133
same,increase in dead-cell fraction,[3]; 0.1 µM,-0.0124
same,increase in dead-cell fraction,[3]; 0.3162 µM,-0.0047
same,increase in dead-cell fraction,[3]; 1 µM,-0.0147
same,increase in dead-cell fraction,[3]; 3.162 µM,0.0036
same,increase in dead-cell fraction,[3]; 10 µM,-0.0053
same,increase in dead-cell fraction,[4]; 0.001 µM,0
same,increase in dead-cell fraction,[4]; 0.003162 µM,-0.0043
same,increase in dead-cell fraction,[4]; 0.01 µM,-0.0042
same,increase in dead-cell fraction,[4]; 0.03162 µM,-0.0019
same,increase in dead-cell fraction,[4]; 0.1 µM,0.0014
same,increase in dead-cell fraction,[4]; 0.3162 µM,0.003
same,increase in dead-cell fraction,[4]; 1 µM,0.0069
same,increase in dead-cell fraction,[4]; 3.162 µM,0.0045
same,increase in dead-cell fraction,[4]; 10 µM,0.0099
same,increase in dead-cell fraction,[5]; 0.0001 µM,-0.0018
same,increase in dead-cell fraction,[5]; 0.0003162 µM,-0.0005
same,increase in dead-cell fraction,[5]; 0.001 µM,-0.0013
same,increase in dead-cell fraction,[5]; 0.003162 µM,0.0017
same,increase in dead-cell fraction,[5]; 0.01 µM,0.0215
same,increase in dead-cell fraction,[5]; 0.03162 µM,0.03
same,increase in dead-cell fraction,[5]; 0.1 µM,0.0462
same,increase in dead-cell fraction,[5]; 0.3162 µM,0.0389
same,increase in dead-cell fraction,[5]; 1 µM,0.0492
same,increase in dead-cell fraction,[6]; 0.001 µM,0.0342
same,increase in dead-cell fraction,[6]; 0.003162 µM,0.0014
same,increase in dead-cell fraction,[6]; 0.01 µM,0.032
same,increase in dead-cell fraction,[6]; 0.03162 µM,0.0412
same,increase in dead-cell fraction,[6]; 0.1 µM,0.0311
same,increase in dead-cell fraction,[6]; 0.3162 µM,0.107
same,increase in dead-cell fraction,[6]; 1 µM,0.0854
same,increase in dead-cell fraction,[6]; 3.162 µM,0.0584
same,increase in dead-cell fraction,[6]; 10 µM,0.126
same,increase in dead-cell fraction,[7]; 0.0001 µM,0.0001
same,increase in dead-cell fraction,[7]; 0.0003162 µM,-0.0015
same,increase in dead-cell fraction,[7]; 0.001 µM,0.0053
same,increase in dead-cell fraction,[7]; 0.003162 µM,0.016
same,increase in dead-cell fraction,[7]; 0.01 µM,0.139
same,increase in dead-cell fraction,[7]; 0.03162 µM,0.126
same,increase in dead-cell fraction,[7]; 0.1 µM,0.108
same,increase in dead-cell fraction,[7]; 0.3162 µM,0.0794
same,increase in dead-cell fraction,[7]; 1 µM,0.121
same,increase in dead-cell fraction,[8]; 0.0003162 µM,0.0037
same,increase in dead-cell fraction,[8]; 0.001 µM,0.0029
same,increase in dead-cell fraction,[8]; 0.003162 µM,-0.0003
same,increase in dead-cell fraction,[8]; 0.01 µM,-0.0009
same,increase in dead-cell fraction,[8]; 0.03162 µM,0.0192
same,increase in dead-cell fraction,[8]; 0.1 µM,0.0682
same,increase in dead-cell fraction,[8]; 0.3162 µM,0.138
same,increase in dead-cell fraction,[8]; 1 µM,0.199
same,increase in dead-cell fraction,[8]; 3.162 µM,0.22
same,increase in dead-cell fraction,[9]; 0.001 µM,0.0064
same,increase in dead-cell fraction,[9]; 0.003162 µM,0.0041
same,increase in dead-cell fraction,[9]; 0.01 µM,0.0062
same,increase in dead-cell fraction,[9]; 0.03162 µM,0.0114
same,increase in dead-cell fraction,[9]; 0.1 µM,0.0193
same,increase in dead-cell fraction,[9]; 0.3162 µM,0.0259
same,increase in dead-cell fraction,[9]; 1 µM,0.0468
same,increase in dead-cell fraction,[9]; 3.162 µM,0.0789
same,increase in dead-cell fraction,[9]; 10 µM,0.222
same,increase in dead-cell fraction,[10]; 0.001 µM,0.0054
same,increase in dead-cell fraction,[10]; 0.003162 µM,0.0034
same,increase in dead-cell fraction,[10]; 0.01 µM,0.0061
same,increase in dead-cell fraction,[10]; 0.03162 µM,0.0001
same,increase in dead-cell fraction,[10]; 0.1 µM,0.0007
same,increase in dead-cell fraction,[10]; 0.3162 µM,-0.0037
same,increase in dead-cell fraction,[10]; 1 µM,0.0003
same,increase in dead-cell fraction,[10]; 3.162 µM,0.0012
same,increase in dead-cell fraction,[10]; 10 µM,0.0111
same,increase in dead-cell fraction,[11]; 0.001 µM,-0.0047
same,increase in dead-cell fraction,[11]; 0.003162 µM,0.0058
same,increase in dead-cell fraction,[11]; 0.01 µM,0.0054
same,increase in dead-cell fraction,[11]; 0.03162 µM,0.0087
same,increase in dead-cell fraction,[11]; 0.1 µM,0.0196
same,increase in dead-cell fraction,[11]; 0.3162 µM,-0.0036
same,increase in dead-cell fraction,[11]; 1 µM,0.0183
same,increase in dead-cell fraction,[11]; 3.162 µM,0.0124
same,increase in dead-cell fraction,[11]; 10 µM,0.0512
same,increase in dead-cell fraction,[12]; 0.001 µM,-0.0016
same,increase in dead-cell fraction,[12]; 0.003162 µM,0.0067
same,increase in dead-cell fraction,[12]; 0.01 µM,0.0043
same,increase in dead-cell fraction,[12]; 0.03162 µM,0.0012
same,increase in dead-cell fraction,[12]; 0.1 µM,0.0011
same,increase in dead-cell fraction,[12]; 0.3162 µM,-0.0009
same,increase in dead-cell fraction,[12]; 1 µM,0.0099
same,increase in dead-cell fraction,[12]; 3.162 µM,0.142
same,increase in dead-cell fraction,[12]; 10 µM,0.241

# Reference: the supplement of paper PMC9663587
